Assay results as given in patent publication US20150065470A1, “Steroid Sulfatase Inhibitor Regimen for the Treatment of Endometriosis” (priority 2012, published 2015).
Values belong to the compound of their own block, whether it stands above or below them.

Columns and labels:
E2 and P4; T and D4A = assay: Hormone profiles (E2, P4, T, D4A), Example 2; format: in vivo, human
Method: Hormone profiles were determined as described in Example 1.

[1] = target: T1, Steroid Sulfatase in endometrium (Homo sapiens, UniProt P08842); assay: STS activity in endometrium, Example 2 (LC-MS/MS); format: in vivo; conditions: E2MATE 4 mg weekly and/or NETA 10 mg daily for 4 weeks
T1 construct: from tissue; host or cells: endometrium (biopsies) of dosed women
T1 sequence (P08842 22-583): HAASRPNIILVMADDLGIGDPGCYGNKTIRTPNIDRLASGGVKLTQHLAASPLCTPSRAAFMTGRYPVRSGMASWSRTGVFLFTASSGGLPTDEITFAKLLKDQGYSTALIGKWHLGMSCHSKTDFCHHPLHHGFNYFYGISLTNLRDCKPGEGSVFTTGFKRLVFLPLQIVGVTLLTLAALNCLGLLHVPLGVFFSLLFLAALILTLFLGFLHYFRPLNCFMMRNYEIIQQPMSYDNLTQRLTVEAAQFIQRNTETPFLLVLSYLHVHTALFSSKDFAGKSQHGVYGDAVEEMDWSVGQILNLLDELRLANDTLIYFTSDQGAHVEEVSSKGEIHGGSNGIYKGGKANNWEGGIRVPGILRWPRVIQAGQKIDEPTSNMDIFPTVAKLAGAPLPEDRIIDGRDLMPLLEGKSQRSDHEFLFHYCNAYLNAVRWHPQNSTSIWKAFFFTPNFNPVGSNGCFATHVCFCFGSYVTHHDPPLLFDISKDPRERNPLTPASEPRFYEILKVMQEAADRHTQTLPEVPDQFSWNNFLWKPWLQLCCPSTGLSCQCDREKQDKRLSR
Method: (§1) STS activity was determined by spiking specimens with labelled E1-S and by measuring its conversion to E1 per gram protein under standardized incubation conditions using LC-MS/MS. Protein concentration was evaluated with a validated colorimetric assay (Bradford method).

STS activity in PBMCs = target: T2, STS activity in PBMCs (Homo sapiens, UniProt P08842); assay: STS activity in PBMCs, Example 2 (LC-MS/MS); format: in vivo; conditions: E2MATE 4 mg weekly and/or NETA 10 mg daily for 4 weeks
T2 construct: Pharmacodynamic properties were investigated by assessment of the STS activity in PBMCs; endogenous in cells; host or cells: peripheral blood mononuclear cells (PBMCs) of dosed women
T2 sequence (P08842 22-583): T1 sequence (P08842 22-583)
Method: as §1

[2] = Safety, tolerability and post-treatment menstruation cycles, Example 2; conditions: follow-up, ultrasound
Excerpt: Menstruation cycle length was not influenced by the treatment. […] Sizes of right and left ovary differed slightly for each subject, but no clinically relevant changes were identified by the gynaecologists.

STS [3] = target: T3, STS (Homo sapiens, UniProt P08842); conditions: cited from earlier work
T3 sequence (P08842 22-583): T1 sequence (P08842 22-583)

STS [4] = target: T3, STS; conditions: cited from earlier work; remark: listed apart in the source

- AVG [%] average inhibition of Steroid Sulfatase in endometrium (average effect over time (AUC)) [1]: 14.9 (27.0) %
- Emax [%] maximal inhibition of Steroid Sulfatase in endometrium [1]: 46.7 (42.8) %
- mean percentage inhibition of STS activity in PBMCs (STS activity in PBMCs; Day 4): 12%
- average inhibition of STS activity in PBMCs (STS activity in PBMCs): 4%
Structure (SMILES): C#C[C@]1(OC(C)=O)CC[C@H]2[C@@H]3CCC4=CC(=O)CC[C@@H]4[C@H]3CC[C@@]21C [NETA, norethindrone (norethisterone) acetate, reference compound]
- mean concentration-time profiles in E2 and P4 (E2 and P4; T and D4A; first cycle up to Day 29, normal increase on Day 43): suppressed
- mean concentration-time profiles for T and D4A (E2 and P4; T and D4A; multiple dose administration): No relevant differences
- ovarian size [2]: no apparent effect

Structure (SMILES): C[C@]12CCC3c4ccc(OS(N)(=O)=O)cc4CCC3C1CCC2=O (stereo partly drawn) [EMATE, Estrone-3-o-sulfamate]
- STS inhibition (STS [3]): active STS inhibitors

Structure (SMILES): NS(=O)(=O)Oc1ccc2c3c(c(=O)oc2c1)CCCCC3
- blocking STS activity in both eutopic and ectopic tissues (STS [4]): effective in blocking STS activity
